Assay [1] has as its system asialo-ovine submaxillary mucin. The assay is described as follows: Metal analysis of amaranthin activity in the precipitation assay. In kind it is binding. How it is done: For metal analysis two methods were used to determine if metals were necessary for amaranthin activity. 1) Amaranthin was dialyzed against 1 N acetic acid at 4° C. overnight, and then against 20 mM phosphate buffer at pH 7.2. The acid dialyzed amaranthin was then used in the standard precipitation assay with asialo-ovine submaxillary mucin and the indicated additions. 2) After dialysis into metal free buffer, amaranthin was incubated for 1 hour at room temperature in the presence of the indicated ethylene diamine tetraacetate (EDTA) concentrations. Asialo-ovine submaxillary mucin was then added, and the precipitation assay was carried out as usual. All glassware was acid-washed and buffers were passed over a Chelex 100 column, a trademarked, column commercially available from Bio-Rad to remove divalent metal ions.

Assay [2] deals with well differentiated colonic adenocarcinoma sections. As to the kind of experiment: Inhibition of lectin binding with hapten sugars on tissue sections. More on the design: species or system human; key to Labeling score: 4^+: Maximum labeling of the brown reaction product; 0: No staining of the slide compared to control sections; 1^+: trace or weak staining definitely not seen on control slides; 2+3^+: stronger staining, but definitely less than maximal. The method, then:
(§1) Four micron paraffin embedded tissue sections attached to glass slides were deparaffinized by serial incubations in xylene (twice), absolute ethanol (thrice), 95% ethanol, 70% ethanol, water and finally equilibrated in phosphate buffered saline (PBS), pH 7.0, containing 0.1% bovine serum albumin (BSA) commercially available from Sigma Corp of St. Louis, Mo. The slides were blotted dry adjacent to the tissue sections, and biotinylated lectin was added at a concentration of 10 μg/ml (for ACA) and 20 μg/ml (for PNA) in a quantity sufficient to completely cover the hydrated tissue (100-2001 μl). The lectin was rinsed off after a 30 minute incubation by eight 2-second dips into phosphate buffered saline. The slides were again blotted, and the tissue covered with Streptavidin-horseradish peroxidase (HRP) obtained from Zymed Laboratories, San Francisco, Calif. at a concentration of 10 μg/ml for 30 minutes. The slides were rinsed as mentioned above, and the pigmented reaction product developed by the addition of a freshly prepared chromogen reagent solution prepared within two hours of use as follows.
3,3'-diaminobenzidine was aliqotted at 5 mg/mL in 0.01 M (Tris) tris hydroxy methyl amino methane saline, pH 7.5 and frozen at -70° C. until use. For use, the aliquot was thawed, diluted 1:10 in 0.01 M (Tris) tris hydroxy methyl amino methane saline pH 7.5, and 3.3 μL of 30% H2 O2 were added to each 5 ml. This solution was allowed to stand for 10 min, and 100-200 μl was applied to the tissue sections that had been incubated earlier with biotinylated lectin and Streptavidin-HRP. After 10 min, the slides were rinsed with albumin-free phosphate buffered saline. The tissues were briefly counterstained for 50 seconds with Gill's #3 hematoxylin bovine serum albumin, commercially available from Sigma Corp. of St. Louis, Mo., rinsed with water, and serially dehydrated using graded alcohols and xylene, and embedded in Permount, a trademarked, commercially available product of Allied-Fischer Scientific of Livonia, Mich.
The specificity of lectin binding was evaluated by preincubating the biotinylated lectin with inhibitory hapten sugar for 1-2 hours prior to its application to the tissue. In each instance, the reagents were prepared so that the final concentration of lectin on the slide was either 10 or 20 μg/ml and the hapten sugar was as indicated in the results. Galactose, lactose, GalNAc, and galactose-β1-3N-acetylgalactosamine-α-O-benzyl (T-antigen-α-O-benzyl) were also obtained from Sigma Corp.
The stained sections were examined with a light microscope using a 25× and 40× objective lenses and 10× eyepiece. Evaluation of lectin binding required the use of several approaches. First, the binding specificity was confirmed by coincubation of lectin with hapten sugars known to bind the lectin maximally. Maximum labeling of the brown reaction product was arbitrarily assigned a score 4^+. See Boland, C. R., Bresalier, R. S., and Roberts, J. A. "Assay of lectin binding sites in colonic cancer-associated mucins: comparison of fluorescence microscopy with a quantitative chromatographic technique." J. Histochem. Cytochem., 36: 1329-1334, 1988. No staining of the slide compared to control sections (i.e., in which lectin was omitted from the staining procedure) was assigned a score of 0. Intermediate scores of 1^+ (trace or weak staining definitely not seen on control slides) and 2+3^+ (stronger staining, but definitely less than maximal) were assigned. […] See Boland. This method was used to confirm the binding specificity to known "positive" tissues and to evaluate changes in lectin binding after neuraminidase treatment.
Specimens of well differentiated colonic cancers were incubated with biotinylated lectins. Working concentrations on the slide were 10 μg/ml for ACA and 20 μg/ml for PNA. The hapten sugars galactose (Gal), N-acetylgalactosamine (GalNAc), and Galβ1,3GalNAc-α-O-benzyl (T-antigen) were used to inhibit lectin binding to the tissues. […]

Another assay has as its system HNPCC tissues. The assay is described as follows: Lectin histochemistry, HNPCC rectal biopsies. In kind it is binding, human. Also on record: key to Staining (global score 0-3+): 4^+: Maximum labeling of the brown reaction product; 0: No staining of the slide compared to control sections; 1^+: trace or weak staining definitely not seen on control slides; 2+3^+: stronger staining, but definitely less than maximal. As to conditions: listed as ACA; for Weighted Average (0-400): mean ± SEM.
Source text: Rectal biopsies were obtained from individuals who were first degree relatives of patients with hereditary nonpolyposis colorectal cancer (HNPCC) as identified by H. T. Lynch, M.D. These patients were the siblings or offspring of index patients who fit the criteria for Lynch Syndrome I or II. See Drzeniek, Z., and Usowska, E. (1979) Arch. Immunol Ther. Exp. 27, 253-262. However, since there is no definitive genetic or phenotypic marker for this familial syndrome, it is not possible to be certain that these patients represent a single homogenous genetic abnormality. The biopsies were fixed in formalin, and embedded in paraffin for tissue sectioning.
as §1, with “follows. […]” for “follows.”
Therefore, each individual crypt of Lieberkuhn was given a score from 0-4^+, and the labeling was expressed as a "weighted average", or, the sum of scores from 100 crypts, which could range from 0 (all crypts not labeled) to 400 (all 100 crypts maximally labeled). […]

Take amaranthin: the “% Control reactivity” value in assay [1] (5 mM EDTA) is given as 100%; in assay [1] (25 mM EDTA) it was 100%; in assay [1] (Acid dialyzed amaranthin & AOSM), 81%; in assay [1] (Acid dialyzed amaranthin & AOSM, 0.1 mM CaCl2), 80%; in assay [1] (Acid dialyzed amaranthin & AOSM, 0.1 mM MgCl2), 80%; in assay [1] (Acid dialyzed amaranthin & AOSM, 0.1 mM MnCl2), 79%. The “effect of EDTA on precipitating activity, in words” value in assay [1] (ethylene diamine tetra acetate 5-25 mM) is on record as “had no effect”. Besides, the “GalNAc concentration that inhibited labeling” value in assay [2] was at least 250 mM. Also, the “T-antigen concentration that inhibited labeling” value in assay [2] is at least 100 µM. In assay [2], the “galactose concentration required for partial inhibition of binding” value is 400 mM. Moreover, in assay [2], the “lactose concentration required for partial inhibition of binding” value turned out to be 400 mM. The Labeling score entry is given as “Trace” in assay [2] (GalNAc 250 mM), 0 in assay [2] (T-antigen 100 μM), 0 in assay [2] (T-antigen 200 μM) and 0 in assay [2] (T-antigen 400 μM). Besides, the entries for the “Weighted Average (0-400)” value in the assay on HNPCC tissues (HNPCC outliers) and with HNPCC tissues (HNPCC) were 203±43 and 74±70, respectively. Also, the “Staining (global score 0-3+)” value in the assay with HNPCC tissues (biotinylated ACA 10 μg/mL or PNA 20 μg/mL) was 1^+.
